Measurements taken from article PMC3982590 (Biochemistry, 2013).

Target: T1, TtPFK (Thermus thermophilus, UniProt P21777, L313W)
T1 sequence (P21777 1-322 L313W): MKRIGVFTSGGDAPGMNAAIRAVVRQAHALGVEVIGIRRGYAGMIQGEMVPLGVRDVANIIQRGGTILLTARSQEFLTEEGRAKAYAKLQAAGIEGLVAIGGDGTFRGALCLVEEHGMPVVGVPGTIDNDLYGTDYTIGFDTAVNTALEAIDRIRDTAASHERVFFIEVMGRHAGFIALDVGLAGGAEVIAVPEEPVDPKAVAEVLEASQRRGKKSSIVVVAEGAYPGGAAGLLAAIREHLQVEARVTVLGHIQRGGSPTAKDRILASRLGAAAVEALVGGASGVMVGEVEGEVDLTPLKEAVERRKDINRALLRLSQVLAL
Assay: intrinsic tryptophan fluorescence titration
Type: binding

C=C(OP(=O)(O)O)C(=O)O [PEP]
Kd: 660 ± 60 nM
